Laboratory results from publication PMC12736008, “New Dimethylpyridine-3-Carboxamide Derivatives as MMP-13 Inhibitors with Anticancer Activity” (Molecules, 2025).

What was measured:
[1] = biological target: T1, HSA/Dansyl-L-Phe (Homo sapiens, UniProt P02768); test: Marker displacement from HSA/Dansyl-L-Phe complex (Sudlow site II); assay type: binding; conditions: room temperature
T1 construct: purchased Sigma-Aldrich
Description: The human serum albumin (HSA) has two main drug-binding sites, known as Sudlow site I and Sudlow site II, located in subdomains IIA and IIIA of the albumin structure, respectively. […] In addition to these main sites, HSA has the capacity to bind ligands in other regions, including histidine residues, the N-terminus of the molecule, and metal binding sites. However, it is most common for drugs to bind to Sudlow I and Sudlow II. In order to study binding to a specific site in the protein, fluorescent markers, Dansyl-L-Gly and Dansyl-L-Phe, were used. The Dansyl-L-Gly interacts with Sudllow I, while the Dansyl-L-Phe prefers Sudllow II [41, 42]. The tested compounds were added in portions to the solution that contained the HSA/marker complex, and the fluorescence spectrum was recorded (Figure 11 and Figure 12). The percentage of compound exchange in the albumin pocket was calculated using Equation (6):(6) displacement % =F^0 −F /F^0 where F^0 is the maximum fluorescence intensity of HSA/Dansyl-L-Gly complex, and F is the maximum fluorescence intensity after a quencher addition. The calculated data were collected in Table 6. It was observed that only compound 3b displaces from the Dansyl-L-Gly binding site, as indicated by a decrease in fluorescence intensity with increasing concentration of this derivative, but only to approximately 8%. […] The band intensity increases slightly, which may be due to the dilution of the solution. The dilution of the sample leads to an increase in the average distance between molecules. This, in turn, results in a reduction in the number of collisions and reabsorptions, thereby enhancing the efficiency of fluorescence emission. Nevertheless, the binding site for Dansyl-L-Phe was displaced by all of the tested derivatives.
Solutions of Dansyl-L-Phe (Chem-Norm Biotech, Wuhan, China) and Dansyl-L-Gly (Sigma-Aldrich, Tokyo, Japan) were prepared by dissolving them separately in ethanol to a final concentration of 1·10^−3 mol/dm^3. The HSA solution was prepared in the same way as for titration binding measurements. Spectra were recorded at room temperature using a Cary Eclipse 500 spectrophotometer (Agilent, Santa Clara, CA, USA) with an excitation wavelength of 350 nm, and an emission range of 410–670 nm and the PMT voltages were (V) 700 and 650 for Dansyl-L-Gly and Dansyl-L-Phe, respectively. The complexes were prepared by mixing the HSA solution with the dansylated markers, and then adding the solution of the studied compounds from a ratio of 0 to 11.0 molar at the same increments, using the same protocol as in the spectroscopy studies.

[2] = Solubility on preparing DMSO stock solutions; assay type: physicochemical; conditions: dissolved to 30 mM
Description: (§1) All tested compounds were dissolved in DMSO to obtain stock solutions with a final concentration of 50 mM (3a, 3b, 3e), 40 mM (3f, 3g, 3i, 3j), and 35 mM (3h, 3k). […] In the next step, 10 µL of each stock solution was added to 990 µL of supplemented medium.

[3] = MTT assay, NHDF; assay type: cell-based, human; conditions: human, NHDF cells (normal human dermal fibroblasts), 0.004 mM to 0.5 mM
Description: As mentioned earlier, MMP-13 is overexpressed and functionally significant in various cancers, including melanoma and colorectal carcinoma. For instance, high MMP-13 levels have been correlated with metastasis and poor survival in melanoma patients. In colorectal cancer, elevated MMP-13 activity has been observed in tumors compared to normal mucosa, and its expression is associated with a worse prognosis. Based on computational studies, four out of the eleven designed compounds showing the most promising predicted activity against MMP-13 were selected for biological evaluation. For the MTT assay, NHDF cells were used as the healthy reference cell line, while A375 (melanoma) and HT-29 (colorectal adenocarcinoma cancer) cell lines were chosen as cancer models.
Experiments were conducted using two cancer cell lines and, as a control, a normal human dermal fibroblasts (NHDF; ATCC PCS-201-012). The A375 cell line (human melanoma, ATCC CRL-1619), and HT-29 cell line (human colorectal adenocarcinoma, ATCC HTB-38) were cultured in DMEM (Dulbecco’s Modified Eagle Medium, Institute of Immunology and Experimental Therapy (IITD), Wrocław, Poland) supplemented with 1% antibiotics (10 U/mL penicillin and 10 µg/mL streptomycin, Sigma-Aldrich, St Louis, MO, USA), 1% glutamine (Sigma-Aldrich, St Louis, MO, USA) and 10% fetal bovine serum (FBS, Gibco, Grand Island, NY, USA). For NHDF cultures, α-MEM (α-Minimum Essentials Medium, Institute of Immunology and Experimental Therapy (IITD), Poland) was used with the same supplement combination as for the cancer cell lines. All cells were maintained in a humidified incubator (INCO 105, Memmert GmbH, Schwabach, Germany) at 37 °C with 5% CO2 and 95% humidity. Cells were passaged routinely by trypsinization (twice a week). For the MTT (3-(4,5-simethylthiazol-2,5-diphenyltetrazolinum bromide), Sigma, St. Louis, MO, USA) assay, cells were used after 2–4 passages, when they reached approximately 80% confluence.
as §1
The MTT assay was performed in 96-well plates, with a seeding density of 1 × 10^4 cells per well. All cell lines were incubated for 24 h in their respective media: α-MEM for (NHDF cells) and DMEM for (A375 and HT-29) cells. After incubation, the medium was removed and replaced with fresh medium containing the tested compounds at concentrations ranging from 0.004 mM to 0.5 mM. […] Absorbance was measured spectrophotometrically at a wavelength of 570 nm using a BioTek SYNERGY H1 microplate reader (Agilent, Santa Clara, CA, USA).

[4] = biological target: T2, MMP-13 (Homo sapiens, UniProt P45452); test: MMP-13 inhibitor screening assay kit (fluorometric); assay type: biochemical; conditions: single-point screening; tested compounds 1.8 to 4.6 µM
T2 construct: purchased Abcam ab139451
Description: The inhibitory activity of the designed compounds against MMP-13 was evaluated using a commercial fluorometric MMP-13 inhibitor assay kit (Abcam, Cambridge, UK), following the manufacturer’s protocol. Solutions of the tested compounds were prepared at concentrations ranging from 1.8 to 4.6 µM. N-isobutyl-N-(4-methoxyphenylsulfonyl)glycyl hydroxamic acid (NNGH), a broad-spectrum inhibitor of matrix metalloproteinases, was used as positive control. […] In parallel, MMP-8 inhibition assays were also conducted using the same concentrations of compounds 3b, 3c, 3d, and 3g.
It should be emphasized that these assays were performed as single-point screening experiments, optimized for rapid qualitative assessment rather than full kinetic characterization. Consequently, the observed differences in activity between MMP-13 and MMP-8 are indicative trends supporting the selectivity predicted by computational studies, including docking, molecular dynamics simulations, and binding free energy calculations, rather than providing definitive quantitative evidence.
The inhibitory activity of the tested compounds was evaluated using the MMP-13 inhibitor screening assay kit (fluorometric) (Abcam, ab139451). The assay performed according to the manufacturer’s instructions. The designed compounds were tested at concentrations ranging from 1.8 to 4.6 µM, to determine their inhibitory activity. […]

T1 sequence (P02768 25-609): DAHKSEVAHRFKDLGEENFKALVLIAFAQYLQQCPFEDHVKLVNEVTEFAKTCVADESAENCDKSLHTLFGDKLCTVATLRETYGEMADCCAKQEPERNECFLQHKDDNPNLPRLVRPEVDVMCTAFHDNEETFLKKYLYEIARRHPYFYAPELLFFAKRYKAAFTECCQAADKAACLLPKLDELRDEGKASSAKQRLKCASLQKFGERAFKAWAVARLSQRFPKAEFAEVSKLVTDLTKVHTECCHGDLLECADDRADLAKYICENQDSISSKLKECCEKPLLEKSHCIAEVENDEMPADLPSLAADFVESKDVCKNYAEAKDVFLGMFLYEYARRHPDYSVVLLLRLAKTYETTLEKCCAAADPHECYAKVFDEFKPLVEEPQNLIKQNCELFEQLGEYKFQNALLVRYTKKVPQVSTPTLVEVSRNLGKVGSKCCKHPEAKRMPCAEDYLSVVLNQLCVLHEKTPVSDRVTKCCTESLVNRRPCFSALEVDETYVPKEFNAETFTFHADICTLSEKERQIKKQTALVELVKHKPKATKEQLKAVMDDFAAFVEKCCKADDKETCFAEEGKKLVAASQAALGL

## Cc1cc(C)c(C(=O)NCC(=O)NCc2ccc(Oc3ccccc3)cc2)c(S)n1 [Compound 3b, 4,6-dimethyl-N-{2-[(4-phenoxybenzyl)amino]-2-oxoethyl}-2-sulfanylpyridine-3-carboxamide]
[1]
  Marker Displacement Percentage HSA/Dansyl-L-Gly: 35.2%

## Cc1cc(C)c(C(=O)NCC(=O)NCc2ccc(Cl)cc2)c(S)n1 [Compound 3c, N-{2-[(4-chlorobenzyl)amino]-2-oxoethyl}-4,6-dimethyl-2-sulfanylpyridine-3-carboxamide]
[1]
  Marker Displacement Percentage HSA/Dansyl-L-Gly: 18.5%
[2]
  solubility: low solubility

## Cc1cc(C)c(C(=O)NCC(=O)NCc2ccccc2Cl)c(S)n1 [Compound 3d, N-{2-[(2-chlorobenzyl)amino]-2-oxoethyl}-4,6-dimethyl-2-sulfanylpyridine-3-carboxamide]
[1]
  Marker Displacement Percentage HSA/Dansyl-L-Gly: 10.6%
[2]
  solubility: low solubility
[3]
  viability at 24 h: > 63%

## Cc1cc(C)c(C(=O)NCC(=O)NCc2ccccc2)c(S)n1 [Compound 3g, 4,6-dimethyl-N-[2-(benzylamino)-2-oxoethyl]-2-sulfanylpyridine-3-carboxamide]
[4]
  MMP-13 activity inhibition: most pronounced inhibitory effect
[1]
  Marker Displacement Percentage HSA/Dansyl-L-Gly: 11.1%
